Reference: publication PMC6934184, “Selective DNA-PKcs inhibition extends the therapeutic index of localized radiotherapy and chemotherapy” (The Journal of Clinical Investigation, 2019)

Target: T1, PHKG1 (Homo sapiens, UniProt Q16816)
T1 construct: purchased Thermo Fisher Scientific (Life Technologies) SelectScreen
Experiment: SelectScreen Z'LYTE
Type: biochemical
In short: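 Percent values come from Thermo SelectScreen profiling of NU5455, combining activity and binding assays. CSF1R was run in Z'LYTE format at Km app ATP, and CAMK1 in Adapta format with ATP listed at 10.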

T1 sequence (Q16816 whole entry): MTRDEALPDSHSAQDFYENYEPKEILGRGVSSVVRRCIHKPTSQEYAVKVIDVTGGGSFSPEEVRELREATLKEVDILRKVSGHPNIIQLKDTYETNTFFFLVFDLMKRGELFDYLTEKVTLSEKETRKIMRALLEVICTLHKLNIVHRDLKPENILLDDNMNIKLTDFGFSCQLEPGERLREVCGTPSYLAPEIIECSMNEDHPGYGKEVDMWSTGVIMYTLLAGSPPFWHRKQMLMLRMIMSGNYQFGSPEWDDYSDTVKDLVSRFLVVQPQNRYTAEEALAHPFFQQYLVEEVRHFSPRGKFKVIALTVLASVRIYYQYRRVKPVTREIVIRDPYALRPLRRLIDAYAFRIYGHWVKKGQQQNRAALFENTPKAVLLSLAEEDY

Question: For `CN(C(=O)CN1CCOCC1)c1ccc2sc3c(-c4cccc5c(=O)cc(N6CC7CCC(C6)O7)oc45)cccc3c2c1` [NU5455], which inhibition at 1 µM is on record?
Answer: -5%
